# How the values were obtained:
# anti-Savinase® antibody = assay: ELISA of antibody binding capacity of immobilized peptides with sera raised against different proteins; parameters: species or system rabbits, rats, and mice; conditions: biotin-linked peptide on streptavidin plates, sera raised against Alcalase, Subtilisin Novo, Carezyme, Laccase, Natalase, SP722, Lipolase (FIG. 1)
# Method: The antibody binding capacity of the two linear peptide sequences, RRFANDHTR (light gray bars) and RRFSNATRA (dark gray bars), were tested in an ELISA assay, by measuring optical density, OD. The sequences were tested for binding to antibodies in sera raised against different proteins. The different proteins are marked by capital letters A through H. A=Alcalase®, B=Savinase®, C=Subtilisin Novo®), D=Carezyme®) (cellulase), E=Laccase, F=Natalase® (amylase), G=SP722 (amylase), H=Lipolase® (lipase).
# Specific IgG and IgE levels were determined using the ELISA specific for human, mouse or rat IgG or IgE. Differences between data sets were analysed by using appropriate statistical methods. The assays were performed as known to the expert.
# The following sequences were synthezised, and immobilized on biotin, through a linker molecule:
# The biotin-complex was immobilized in ELISA well plates, pre-coated with streptavidin. If phages were used, these were directly coated into the ELISA plate wells. ELISA was performed as described elsewhere, on sera from rabbits, rats, and mice raised against Alcalase®, Savinase®, and Subtilisin Novo® as well as a number of less relevant proteins.
# In FIG. 1 the reactivity of the selected peptides in terms of antibody binding capacity is shown (ELISA assay). […]
# specific antibodies = assay: Phage display library screening for clones binding specific antibodies; conditions: random hexa-, nona- or dodeca peptide phage display library
# Source text: In a particular method, the identification of antibody binding sequences may be achieved by screening a display package library, particularly a phage display library. The principle behind phage display is that a heterologous DNA sequence can be inserted in the gene coding for a coat protein of the phage (WO 92/15679). The phage will make and display the hybrid protein on its surface where it can interact with specific target agents. Such target agent may be antigen-specific antibodies. It is therefore possible to select specific phages that display antibody-binding peptide sequences. […] Thus, by screening for antibody binding, one can isolate the peptide sequences that have sufficiently high affinity for the particular antibody used. The peptides of the hybrid proteins of the specific phages which bind protein-specific antibodies characterize epitopes that are recognized by the immune system.
# From a phage display library expressing random hexa-, nona- or dodeca peptides as part of their membrane proteins, specific phage clones were isolated capable of binding specific antibodies. […] The amino acid sequence of the corresponding oligopeptide was deduced from the DNA sequence.
Substance,"reactivity (antibody binding capacity, optical density, OD) (anti-Savinase® antibody)",antibody binding of phage-displayed peptide (specific antibodies)
R R F A N D H T R (RRFANDHTR),Reactivity was observed with anti-Savinase® antibody only,–
R R F S N A T R A (RRFSNATRA),Reactivity was observed with anti-Savinase® antibody only,–
VQVYGDTSA,–,specific antibody binding peptide

# — US20030119066A1, “Diagnostic kit for detecting immunogenic response and method of screening” (Novozymes A/S, priority 2001, published 2003)
